Here are results for 23 molecules from US4228304A, “Novel cyclohexanecarboxylic acid and its derivatives” (Hisamitsu Pharmaceutical Co. Inc., priority 1977, dated 1980).

A word on the Inhibition: it is the share of the control response that was lost under treatment. As a reminder, the LD50 is the dose at which mortality reaches 50%. Higher therefore signals lower toxicity.

The structures appear in SMILES notation. Structures can show the parent of a compound that is named as a salt.

A short description of one data set: Emulsification test. Type of data set: physicochemical. Particulars: 10 ml of 0.25% solution of the salt + 10 ml toluene, 40° C., 15 minutes standing. Here is the method:
(§1) (6) Emulsification test and determination of surface tention
They were emulsified in the test tube by turning it upside down repeatedly for 30 times at 40° C. and were allowed to stand for 15 minutes. After the standing the separated volume of aqueous layer was measured.

A short description of data set [1]: Determination of surface tension. Type of data set: physicochemical. Particulars: 0.25% solution of the salt, Ring method, 25° C. The method, then: as §1
As the structure of the compounds of the present invention is comparatively, similar to Amisoft, HS-11, a sort of Amisoft, which is mixture of 70% of N-stearoyl-L-glutamic acid monosodium salt and 30% of N-palmitoyl-L-glutamic acid monosodium salt was selected for the tests. The surface activity and the surface tension of the said HS-11 and the compounds of the present invention were measured and determined respectively, and those comparative results were shown in Table VII.
(2) Determination of surface tension
The 0.25% solution of the salt of each compound was determined by Ring method at 25° C.

In data set [2] the test system is passive cutaneous anaphylaxis in rat. Description: Homologeous passive cutaneous anaphylaxis in rat. The following applies: orally, exuded pigment vs control. Type of data set: in vivo, rat (Wistar strain). Here is the method:
(2) Homologeous passive cutaneous anaphylaxis in rat Each test compound suspended in 0.5% tragacanth gum-distilled water was administered orally to a group of five male Wistar strain rats (body weight 150-200 g). After one hour 0.1 ml of 5% anti-Dinitrophinol conpled Ascaris rat IgE serum-physiological sodium chloride solution was injected intradermally to dorsum of the rat. […] The animals were sacrificed by decapitation 30 minutes after the injection. Thereafter the skin of the animals were removed and the amount of the pigment exuded into the inflamed skin was determined. The percent inhibitions were calculated by the ratio of the amounts of exuded pigments to the control.

A short description of another data set: Acute toxicity (rat). Particulars: in vivo, po. Here is the method:
Each test compound suspended in 0.5% tragacanth gum-saline was administered orally, subcutaneously or intraperitoneally to animals ddY strain mouse and Wistar strain rats. The 50% lethal dose and the 95% confidence limit were calculated by Litchfield-Wilcoxon's method from the death of animals in 3 weeks following administration.

Data set [3] relates to lung fragment of guinea pig. Description: Mediator (histamine) release on lung fragment of guinea pig. Type of data set: cell-based, guinea pig (Hartley strain). The following applies: 10^-4 g/ml. Here is the method:
(4) Mediator release on lung fragment of guinea pig.
A group of Hartley strain male guinea pigs (body weight 250-300 g) were administered intraperitoneally anti-BPO-BGG IgE serum. The animals were sacrificed by decapitation, and those sensitized lungs were isolated for use. […] Following 10 minute incubation, the amount of the released histamine were determined by bioassay.

Data set [4] concerns Picryl Chloride induced contact dermatitis. Description: Picryl Chloride induced contact dermatitis. Particulars: Mus musculus, po; for inhibition in vivo at 100 mg/kg: orally, ear swelling 24 hours after second challenge. Type of data set: in vivo, mouse (ddY strain). Here is the method:
(3) Picryl Chloride induced contact dermatitis
At first 0.1 ml of 7% picryl chloride-ethanol solution was applied to skin of the depilated abdomens (area 2.5×15 mm) of ddY-strain male mice (body weight 20-22 g). After one week each 0.02 ml of 1% picryl chloride-olive oil solution was applied topically to the ears of the mouse. […] After three days 0.1 ml of 7% picryl chloride-ethanol solution was applied again to the depilated abdomens of the mice. After one week, each 0.02 ml of 1% picryl chloride-olive oil solution per ear were applied topically to the bilateral ears, and at same time, the test compounds were administered orally. Immediately before and 24 hours after the second challenge, the thickness of the ears was measured and the swelling was calculated. The percent inhibitions were calculated by the ratio of the each swelling to the control.

Data set [5] relates to rat adjuvant polyarthritis. Briefly: Effect on rat adjuvant polyarthritis. It counts as in vivo, rat (Sprague Dawley strain). The following applies: oral daily: Compound No. 1 200 mg/kg, Ibuprofen 50 mg/kg, Prednisolone 0.5 mg/kg. The method, then:
(5) Effect on rat adjuvant polyarthritis
A group of eight to ten male Sprague Dawley strain rats (body weight 240-280 g) were used. 0.1 ml of Complete Freuind's adjuvant (CFA, Mycobacterium butyricum, 100 mg/10 cc) was injected intradermally to the right hind sole.

As to `CC(C)CCC[C@H]1CC[C@@](C)(C(=O)NCC(=O)O)CC1` [Compound No. 2 (potassium salt)], in “Emulsification test”, the “Separated volume of aqueous layer” value turned out to be 9.5 mL. Besides, the “Surface tension γ” value in data set [1] amounted to 39.5 dyn/cm.

The molecule `CC(C)CCC[C@H]1CC[C@@](C)(C(=O)NCC(=O)O)CC1` [Compound No. 2, N-(cis-4-isohexyl-1-methylcyclohexanecarbonyl)-glycine] showed an Inhibition in data set [2] (100 mg/kg) of 46%. Further, the 50% lethal dose (LD50) at 504 h in the data set “Acute toxicity (rat)” (female rat) is roughly 10300 mg/kg; in “Acute toxicity (rat)” (male rat), roughly 11000 mg/kg. In addition, the “inhibition (released histamine)” value in data set [3] turned out to be 73.0%. This molecule also had an inhibition in vivo at 100 mg/kg in data set [4] of 41%.

In the case of `CCC(NC(=O)[C@]1(C)CC[C@H](CCCC(C)C)CC1)C(=O)O` (stereo partly drawn) [Compound No. 12 (potassium salt)], the “Separated volume of aqueous layer” value in the data set “Emulsification test” stood at 7.3 mL. Further, the “Surface tension γ” value in data set [1] was 44.5 dyn/cm.

For `CCC(NC(=O)[C@]1(C)CC[C@H](CCCC(C)C)CC1)C(=O)O` (stereo partly drawn) [Compound No. 12], the inhibition in vivo at 100 mg/kg in data set [4] was determined as 27%.

As for `CC(C)CCC[C@H]1CC[C@@](C)(C(=O)N[C@@H](CCC(=O)O)C(=O)O)CC1` [Compound No. 15 (monosodium salt)], the “Separated volume of aqueous layer” value in “Emulsification test” is 9.3 mL. Also, the “Surface tension γ” value in data set [1] was 42.3 dyn/cm.

As for `CSCC[C@H](NC(=O)[C@]1(C)CC[C@H](CCCC(C)C)CC1)C(=O)O` [Compound No. 17 (triethanolamine salt)], the “Separated volume of aqueous layer” value in the data set “Emulsification test” is 9.5 mL. Moreover, the “Surface tension γ” value in data set [1] is 42.3 dyn/cm.

In data set [4], `CSCC[C@H](NC(=O)[C@]1(C)CC[C@H](CCCC(C)C)CC1)C(=O)O` [Compound No. 17] displayed an inhibition in vivo at 100 mg/kg of 50%.

Take `CC(C)CCC[C@H]1CC[C@H](C(=O)NCCCCCC(=O)O)CC1` [Compound No. 42 (sodium salt)]: the “Separated volume of aqueous layer” value in the data set “Emulsification test” was determined as 9.5 mL. Further, in data set [1], the “Surface tension γ” value came to 38.8 dyn/cm.

Regarding `CC1(C)[C@@H](O[C@H]2O[C@H](C(=O)O)[C@@H](O)[C@H](O)[C@H]2O[C@@H]2O[C@H](C(=O)O)[C@@H](O)[C@H](O)[C@H]2O)CC[C@]2(C)[C@H]3C(=O)C=C4[C@@H]5C[C@@](C)(C(=O)O)CC[C@]5(C)CC[C@@]4(C)[C@]3(C)CC[C@@H]12` [Glycyrrhizin, reference compound], the Inhibition in data set [2] (100 mg/kg) amounted to 22%. In data set [3], the “inhibition (released histamine)” value came to 8.0%.

`CC(C)Cc1ccc(C(C)C(=O)O)cc1` (stereo not drawn) [Ibuprofen]: the “Swelling percent of left hind paw (non-treatment of CFA)” value is given as -1.7±1.3% in data set [5] (day 0); -2.4±1.0% in data set [5] (day 1); -2.3±1.5% in data set [5] (day 4); 1.5±1.8% in data set [5] (day 7); 7.4±1.8% in data set [5] (day 10); 12.5±1.5% in data set [5] (day 14). The “Swelling percent of left hind paw (non-treatment of CFA)” value in data set [5] (day 17) turned out to be 8.5±1.5%; in data set [5] (day 21) it was 8.5±2.0%. In addition, the “Swelling percent of right hind paw (treatment of CFA)” value (“Swelling percent of right hind paw” below) in data set [5] (day 0) is given as 118.6± 5.7%; in data set [5] (day 1) it was 98.1± 6.1%; in data set [5] (day 4) it was 204.7±11.6%; in data set [5] (day 7) it was 181.7±14.8%; in data set [5] (day 21) it was 138.5±12.6%.

In data set [2] (5 mg/kg), `C[C@]12C=CC(=O)C=C1CC[C@@H]1[C@@H]2[C@@H](O)C[C@@]2(C)[C@H]1CC[C@]2(O)C(=O)CO` [Prednisolone] gave an Inhibition of 42%. Besides, the “Swelling percent of left hind paw (non-treatment of CFA)” value in data set [5] (day 0) is -1.1±1.0%; in data set [5] (day 1), -1.0±1.0%; in data set [5] (day 4) it was -1.7±1.1%; in data set [5] (day 7), 5.7±1.9%; in data set [5] (day 10), 4.5±2.9%; in data set [5] (day 14), 12.5±2.4%. Besides, the “Swelling percent of left hind paw (non-treatment of CFA)” value stood at 9.8±1.4% in data set [5] (day 17) and 7.1±1.5% in data set [5] (day 21). The “Swelling percent of right hind paw” value in data set [5] (day 0) was determined as 118.4± 6.0%; in data set [5] (day 1) it was 97.3± 6.5%; in data set [5] (day 4), 232.7±17.8%; in data set [5] (day 7), 200.3±22.5%; in data set [5] (day 10), 167.2±19.0%; in data set [5] (day 14) it was 175.0±18.6%. The “Swelling percent of right hind paw” value amounted to 174.2±18.6% in data set [5] (day 17) and 173.0±23.7% in data set [5] (day 21). Moreover, the “inhibition (released histamine)” value in data set [3] came to 4.0%. Moreover, the inhibition in vivo at 5 mg/kg in data set [4] (24 h, read-out: Inhibition) worked out at 32%.

For `CC(C)CCC[C@H]1CC[C@@](C)(C(=O)NCCCCCC(=O)O)CC1` [compound 3, N-(cis-4-isohexyl-1-methylcyclohexanecarbonyl)-ε-aminocaproic acid], the inhibition in vivo at 100 mg/kg in data set [4] stood at 45%.

In the case of `CC(C)CCC[C@H]1CC[C@@](C)(C(=O)N[C@@H](C)C(=O)O)CC1` [compound 5], in data set [4], the inhibition in vivo at 100 mg/kg was determined as 32%.

`CC(C)CCC[C@H]1CC[C@@](C)(C(=O)NCCC(=O)O)CC1` [compound 6, N-(cis-4-isohexyl-1-methylcyclohexanecarbonyl)-β-alanine] registered an inhibition in vivo at 100 mg/kg in data set [4] of 10%.

In data set [4], `CC[C@H](C)[C@H](NC(=O)[C@]1(C)CC[C@H](CCCC(C)C)CC1)C(=O)O` [compound 8] displayed an inhibition in vivo at 100 mg/kg of 41%.

The molecule `CCCC(NC(=O)[C@]1(C)CC[C@H](CCCC(C)C)CC1)C(=O)O` (stereo partly drawn) [compound 9] yielded an inhibition in vivo at 100 mg/kg in data set [4] of 47%.

In data set [4], `CC(C)CCC[C@H]1CC[C@@](C)(C(=O)N[C@H](C(=O)O)C(C)C)CC1` [compound 10] displayed an inhibition in vivo at 100 mg/kg of 9%.

In turn, `CCCCC(NC(=O)[C@]1(C)CC[C@H](CCCC(C)C)CC1)C(=O)O` (stereo partly drawn) [compound 11] came in with an inhibition in vivo at 100 mg/kg in data set [4] of 37%.

Take `CC(C)CCC[C@H]1CC[C@@](C)(C(=O)NCCCC(=O)O)CC1` [compound 13]: the inhibition in vivo at 100 mg/kg in data set [4] came to 40%.

In the case of `CC(C)CCC[C@H]1CC[C@@](C)(C(=O)N[C@@H](CCC(N)=O)C(=O)O)CC1` [compound 14], in data set [4], the inhibition in vivo at 100 mg/kg is 7%.

In turn, `CC(C)CCC[C@H]1CC[C@@](C)(C(=O)N[C@@H](CS)C(=O)O)CC1` [compound 18] displayed an inhibition in vivo at 100 mg/kg in data set [4] of 27%.

On to `CC(C)CCC[C@H]1CC[C@](C)(C(=O)O)CC1` [compound 20, trans-4-isohexyl-1-methylcyclohexanecarboxylic acid], for which the inhibition in vivo at 100 mg/kg in data set [4] worked out at 44%.

The molecule `CC(C)CCC[C@H]1CC[C@](C)(C(=O)NCC(=O)O)CC1` [compound 21, N-(trans-4-isohexyl-1-methylcyclohexanecarbonyl)-glycine] showed an inhibition in vivo at 100 mg/kg in data set [4] of 53%.
